Data as given in ChEMBL document CHEMBL1130786, “Sulfonamide-based hydroxamic acids as potent inhibitors of mouse macrophage metalloelastase” (Bioorg Med Chem Lett, 1998).

Columns and labels:
[1] = target: Macrophage metalloelastase (Mus musculus) (UniProt P34960); assay: Inhibitory activity against mouse macrophage metalloelastase (MME) at 100 nM concentration using [3H]elastin as a substrate
[2] = target: Macrophage metalloelastase (Mus musculus, UniProt P34960); assay: Inhibitory activity against mouse macrophage metalloelastase (MME) using [3H]elastin as a substrate
Sequence of Macrophage metalloelastase (P34960 whole entry): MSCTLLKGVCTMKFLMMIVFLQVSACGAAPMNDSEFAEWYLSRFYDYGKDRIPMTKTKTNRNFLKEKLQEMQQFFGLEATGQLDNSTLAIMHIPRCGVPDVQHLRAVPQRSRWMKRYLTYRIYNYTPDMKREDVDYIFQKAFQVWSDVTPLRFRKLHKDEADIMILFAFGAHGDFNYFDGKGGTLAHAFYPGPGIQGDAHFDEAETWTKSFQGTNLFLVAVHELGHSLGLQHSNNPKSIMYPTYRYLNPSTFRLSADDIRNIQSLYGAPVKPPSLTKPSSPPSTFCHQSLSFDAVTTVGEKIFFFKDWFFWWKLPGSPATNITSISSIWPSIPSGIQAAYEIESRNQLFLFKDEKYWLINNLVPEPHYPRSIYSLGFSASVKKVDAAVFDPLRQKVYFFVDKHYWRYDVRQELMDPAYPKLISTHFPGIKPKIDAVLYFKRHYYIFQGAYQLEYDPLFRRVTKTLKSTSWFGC

[3] = target: Macrophage metalloelastase (Mus musculus) (UniProt P34960); assay: Inhibitory activity against mouse macrophage metalloelastase (MME) using [3H]elastin as a substrate; NI means no inhibition at 100 nM concentration

Sequence of Macrophage metalloelastase (Mus musculus) (P34960 110-473 limits assumed): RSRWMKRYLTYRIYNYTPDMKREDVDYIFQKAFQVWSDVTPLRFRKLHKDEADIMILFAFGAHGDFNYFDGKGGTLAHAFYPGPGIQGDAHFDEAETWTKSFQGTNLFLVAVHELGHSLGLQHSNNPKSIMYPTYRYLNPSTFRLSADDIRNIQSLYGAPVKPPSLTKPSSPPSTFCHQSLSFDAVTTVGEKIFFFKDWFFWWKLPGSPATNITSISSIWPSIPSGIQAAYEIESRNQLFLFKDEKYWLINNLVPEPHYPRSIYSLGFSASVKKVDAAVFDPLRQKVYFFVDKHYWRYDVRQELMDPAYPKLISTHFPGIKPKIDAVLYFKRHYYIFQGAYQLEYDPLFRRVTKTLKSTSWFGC

| SMILES | inhibition [1] [%] | IC50 [2] [nM] | further results |
| --- | --- | --- | --- |
| COc1ccc(S(=O)(=O)N(CC(=O)NO)C(C)C)cc1 | 0 |  |  |
| CCC(C)N(CC(=O)NO)S(=O)(=O)c1ccc(OC)cc1 (stereo not given) | 35 |  |  |
| COc1ccc(S(=O)(=O)N(Cc2ccccc2)[C@@H](C)C(=O)NO)cc1 |  | 35 |  |
| COc1ccc(S(=O)(=O)N(Cc2ccccc2)C(C(=O)NO)C(C)C)cc1 (stereo not given) |  | 16 |  |
| COc1ccc(CN(CC(=O)NO)S(=O)(=O)c2ccc(OC)cc2)cc1 | 89 |  |  |
| CC(C)CN(CC(=O)NO)S(=O)(=O)c1ccc(N)cc1 | 22 |  |  |
| COc1ccc(S(=O)(=O)N(Cc2ccccc2)[C@H](CCCCNC(=O)Oc2ccccc2)C(=O)NO)cc1 |  | 67 |  |
| COc1ccc(S(=O)(=O)N(CC(=O)NO)Cc2ccccc2)cc1 | 74 |  |  |
| COc1ccc(S(=O)(=O)N(CCC2CCCCC2)CC(=O)NO)cc1 | 79 |  |  |
| CC(C)CN(CC(=O)NO)S(=O)(=O)c1ccccc1 | 27 |  |  |
| COc1ccc(S(=O)(=O)N(CC(=O)NO)C2CCCCC2)cc1 | 13 |  |  |
| COc1ccc(S(=O)(=O)N(CCC(C)C)CC(=O)NO)cc1 | 11 |  |  |
| COc1ccc(S(=O)(=O)N(CC(=O)NO)Cc2ccncc2)cc1 | 92 |  |  |
| CC(C)CN(CC(=O)NO)S(=O)(=O)c1ccc(N(C)C)cc1 | 34 |  |  |
| COc1ccc(S(=O)(=O)N(CC(=O)NO)Cc2ccc(Cl)cc2)cc1 | 76 |  |  |
| COc1ccc(S(=O)(=O)NCC(=O)NO)cc1 | 0 |  |  |
| COc1ccc(S(=O)(=O)N(CC(=O)NO)Cc2cccc(OC)c2)cc1 | 75 |  |  |
| COc1ccc(S(=O)(=O)N(Cc2ccccc2)[C@@H](C(=O)NO)c2ccccc2)cc1 |  | 31 |  |
| COc1ccc(S(=O)(=O)N(CCc2ccccc2)CC(=O)NO)cc1 | 88 |  |  |
| CC(C)CN(CC(=O)NO)S(=O)(=O)c1ccc(Cl)cc1 | 68 |  |  |
| COc1ccc(S(=O)(=O)N(Cc2ccccc2)[C@@H](C(=O)NO)C(C)C)cc1 |  | 4.9 |  |
| COc1ccc(S(=O)(=O)N(CC(=O)NO)Cc2ccccn2)cc1 | 88 |  |  |
| COc1ccc(S(=O)(=O)N(CC(=O)NO)CC2CCCCC2)cc1 | 77 |  |  |

| SMILES | inhibition [1] [%] | IC50 [2] [nM] | further results |
| --- | --- | --- | --- |
| COc1ccc(S(=O)(=O)N(CC(=O)NO)Cc2cccnc2)cc1 | 80 |  |  |
| CC[C@@H](C)C[C@H](C(=O)NO)N(Cc1ccccc1)S(=O)(=O)c1ccc(OC)cc1 |  | 4.8 |  |
| COc1ccc(S(=O)(=O)N(CC(=O)NO)Cc2ccc(-c3ccccc3)cc2)cc1 | 86 |  |  |
| COc1ccc(S(=O)(=O)N(CCCCc2ccccc2)CC(=O)NO)cc1 | 83 |  |  |
| COc1ccc(S(=O)(=O)N(CC(=O)NO)Cc2ccc(C)cc2)cc1 | 82 |  |  |
| COc1ccc(S(=O)(=O)N(Cc2ccccc2)[C@H](C)C(=O)NO)cc1 |  | 9.6 |  |
| COc1ccc(S(=O)(=O)N(Cc2ccccc2)[C@@H](C(=O)NO)C2CCNCC2)cc1 |  | > 100 |  |
| COc1ccc(S(=O)(=O)N(Cc2cccnc2)[C@@H](C(=O)NO)C(C)C)cc1 [CGS-27023A] |  | 7.7 |  |
| COc1ccc(S(=O)(=O)N(Cc2ccccn2)[C@@H](C(=O)NO)C(C)C)cc1 |  | 6 |  |
| COc1ccc(S(=O)(=O)N(Cc2ccccn2)[C@H](CC(C)C)C(=O)NO)cc1 |  | 6.9 |  |
| COc1ccc(S(=O)(=O)N(Cc2ccccc2)[C@@H](C(=O)NO)C2CCCC2)cc1 |  | 15 |  |
| COc1ccc(S(=O)(=O)N(CC(=O)NO)CC(C)C)cc1 | 70 |  |  |
| COc1ccc(S(=O)(=O)N(Cc2ccccn2)[C@H](C(=O)NO)C(C)C)cc1 |  | 37 |  |
| COc1ccc(S(=O)(=O)N(CC(=O)NO)Cc2ccc3ccccc3n2)cc1 | 50 |  |  |
| CC(C)CN(CC(=O)NO)S(=O)(=O)c1ccc(F)cc1 | 22 |  |  |
| COc1ccc(S(=O)(=O)N(Cc2cccnc2)[C@@H](C(=O)NOCc2ccccc2)C(C)C)cc1 |  |  | inhibition [3]: No inhibition |
| COc1ccc(S(=O)(=O)N(Cc2cccnc2)[C@@H](C(=O)O)C(C)C)cc1 |  |  | inhibition [3]: No inhibition |
| COc1ccc(S(=O)(=O)N(Cc2ccccc2)[C@H](CC(C)C)C(=O)NO)cc1 |  | 13 |  |
| CCOCCOc1ccc(S(=O)(=O)N(CC(=O)NO)CC(C)C)cc1 | 69 |  |  |
| CC[C@H](C)C[C@H](C(=O)NO)N(Cc1ccccc1)S(=O)(=O)c1ccc(OC)cc1 |  | 16 |  |
| Cc1ccc(S(=O)(=O)N(CC(=O)NO)CC(C)C)cc1 | 56 |  |  |
| COc1ccc(S(=O)(=O)N(Cc2ccccc2)C(C)C(=O)NO)cc1 (stereo not given) |  | 13 |  |
